The subject of data set [1] is protein synthesis in BJ fibroblasts. In words: 35S-Met metabolic labeling of protein synthesis, fibroblasts. The format is cell-based, human. Particulars: 12 hours, 20 μM. On the procedure:
H9 embryonic stem cells were seeded in Matrigel™ pre-coated 6-well tissue culture plates at a density of 2×10^5 cells/well, and cultured using mTeSR1 defined medium. BJ fibroblasts were seeded in 6-well tissue culture plate at the same density, and cultured with DMEM supplemented with 10% FBS, penicillin (50 U/ml) and streptomycin (50 μg/ml). Cells were treated for 12 hours with either 20 μM PluriSIn #1 (isonicotinic acid N′-phenylhydrazide) or with 0.2% DMSO. Cells were then washed with PBS, and replenished with methionine-deficient medium for 1 hour. Metabolic labeling of the cells was then performed for 1 hour with 10 μCi of […] methionine in 1 ml/well, in the presence of 20 μM PluriSIn #1 or 0.2% DMSO. Cells were washed with PBS containing 10 mM methionine, and were then lysed in 0.4 ml of 30% ice-cold trichloroacetic acid (TCA) containing 10 mM methionine for 15 minutes. […] Total protein concentration was determined using a Bradford Protein Assay (Sigma-Aldrich), and the radioactivity measurements were normalized accordingly. […]
The similarity between PSIs and PluriSIn #1 and #6 is consistent with the fact that UPR can lead to translational attenuation. In order to confirm this link, the effect of PluriSIn #1 treatment on protein synthesis was determined. […]

The subject of data set [2] is pluripotent cells in mixed cell population (differentiated and undifferentiated CSES2-SO2/3 cells). In words: FACS analysis of TRA-1-60 in mixed cell populations. The data set is classed as cell-based, human. The conditions noted are these: 48 hours, 6-well plates. On the procedure: For quantification of remaining undifferentiated cells after treatment, cells were treated with 20 μM PluriSIn #1 (isonicotinic acid N′-phenylhydrazide) for 48 hours or 72 hours, dissociated using TrypLE™ Select (Invitrogen), and washed with PBS supplemented with 10% FBS and 0.05% sodium azide. Dissociated cells were suspended to a final concentration of 10^6 cells/ml. Cells were incubated on ice with TRA1-60-PE antibody (1:40, BD Biosciences), washed and analyzed using LSR II FACS (BD Biosciences) with FCS Express software (De Novo Software, Los Angeles, Calif.).
(§1) Mixed cell populations were cultured in 6-well plates and exposed to PluriSIn #1 for 48 hours. The cells were then analyzed by FACS analysis, using staining for the pluripotent marker TRA-1-60, and by fluorescence microscopy imaging of OCT4, as described in the Materials and Methods section.
For orientation: Flow cytometry measures light scatter and fluorescence of single cells or particles in a stream.

The subject of data set [3] is OCT4-expressing CSES2-SO2/3 cells. In words: Fluorescence microscopy imaging of OCT4 in mixed cell populations. The format is cell-based, human. The conditions noted are these: 48 hours, mixed cell population. The protocol: High content imaging of CSES2-SO2/3 fluorescent cells (mCherry+ or EGFP+) was performed in black clear-bottom 384-well assay plates (Falcon BD), using the Opera high-content screen imaging platform (PerkinElmer). Otherwise, light and fluorescence imaging of all cells was performed in 24-well, 6-well or 10 cm CELLSTAR® plates (Greiner Bio-One), using an Olympus CellR imaging station. Light imaging of developing mouse embryos was performed in 35 mm culture dishes (Falcon BD), using an Olympus IX70 microscope.
as §1

The subject of the next data set is H9 stem cells. The data set can be described thus: Elimination of undifferentiated cells cultured in 6-well plates. The format is cell-based, human. Particulars: 20 μM. An excerpt:
The PluriSIns were first tested in various culture conditions and exposure durations.

Data set [4] deals with transformed BJ fibroblasts. In words: Methylene blue viability, transformed BJ fibroblasts. The data set is classed as cell-based, human. Particulars: up to 100 μM, 72 hours, 2% fetal bovine serum. On the procedure: (§2) For the high-throughput screens, relative cell number was determined using a CellTiter-Glo® Luminescent Cell Viability Assay as described hereinabove. Otherwise, relative cell numbers were determined by fixating the cells with 0.5% glutardialdehyde and staining with methylene blue dissolved in 0.1 M boric acid (pH 8.5). Color extraction was performed using 0.1 M hydrochloric acid, and the staining (which is proportional to cell number) was quantified by measuring absorbance at a wavelength of 650 nm.
(§3) In one experiment, immortalized BJ fibroblasts served as differentiated cells and were compared with BJ fibroblasts induced to undergo cellular transformation, which served as their undifferentiated cancerous counterparts. […]
(§4) The differentiated and undifferentiated cells were exposed to PluriSIn #1 at concentrations of up to 100 μM for 72 hours under low (2%) fetal bovine serum conditions. Their viability was then measured using a methylene blue viability assay, as described hereinabove.

For data set [5], the system named is normal (immortalized) BJ fibroblasts. In words: Methylene blue viability, immortalized BJ fibroblasts. The format is cell-based, human. Particulars: up to 100 μM, 72 hours, 2% fetal bovine serum. The protocol: as §2, §3, §4
Data set [6] has as its system undifferentiated stem-like glioma cells (SLGCs). The data set can be described thus: Methylene blue viability, undifferentiated SLGCs. The data set is classed as cell-based. Particulars: up to 100 μM, 72 hours, 2% fetal bovine serum. The protocol: as §2
(§5) In a second experiment, undifferentiated stem-like glioma cells (SLGCs) were compared with SLGCs differentiated by monolayer adhesion and exposure to 1 μM retinoic acid for one week, in accordance with procedures described by Campos et al. [Clinical Cancer Research 16:2715-2728 (2010)]. Differentiation of SLGCs is associated with a reduction in tumorigenicity [Campos et al., Clinical Cancer Research 16:2715-2728 (2010)].
as §4

The next data set concerns differentiated SLGCs. The data set can be described thus: Methylene blue viability, differentiated SLGCs. The format is cell-based. Particulars: up to 100 μM, 72 hours, 2% fetal bovine serum. The protocol:
as §2, §5, §4

Structures are written as SMILES.

For `O=C(NNc1ccccc1)c1ccncc1` [PluriSIn #1, isonicotinic acid N′-phenylhydrazide], the “effect on protein synthesis, differentiated cells (fibroblasts)” value in data set [1] was “no effect”. Moreover, in data set [2], the “pluripotent cells eliminated from culture (TRA-1-60 FACS)” value is “over 99%”. Further, the “elimination of OCT4-expressing cells” value in data set [3] is given as “eliminated almost all OCT4-expressing cells”. Besides, the “exposure required for complete elimination of undifferentiated cells” value in the data set with H9 stem cells stood at 48 h. Besides, the “cytotoxicity towards transformed BJ fibroblasts” value in data set [4] is given as “highly cytotoxic”. Also, in data set [5], the “effect on normal (immortalized) BJ fibroblasts” value is on record as “little effect”. Moreover, the “cytotoxicity towards undifferentiated SLGC” value in data set [6] was “highly cytotoxic”. In the data set on differentiated SLGCs, the “effect on differentiated SLGCs” value was “no apparent effect”.

The values are drawn from patent US20180153830A1, “SELECTIVE INHIBITORS OF UNDIFFERENTIATED CELLS” (Yissum Research Development Company of the Hebrew …, priority 2012, published 2018).
